Test results reported in PubChem BioAssay AID200 (DTP/NCI, 2004).
“And” between values parts separate entries of the source, which are not always exact repeats. Equal entries are not always repeated. Inconclusive results and toxic doses are left out. How the source made its calls: active means survival T/C of 150% or more; inactive means T/C below 125% in these data.

Test system: B6C3F1 mice, B16 melanoma ip, median survival T/C
Test: NCI In Vivo Anticancer Drug Screen. Data for tumor model B16 Melanoma (intraperitoneal) in B6C3F1 mice
Settings: endpoint: median survival time, higher = longer survival
Summary of the method: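 Mice bearing transplanted tumor were dosed with compound or vehicle, and survival was recorded. Activity is expressed as the treated-group measurement (T) divided by the vehicle control measurement (C).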

[1] = dose: 25.0 mg/kg/injection, schedule: Q01DX009 (ip), vehicle: Klucel (hydroxypropylcellulose) (HPC)
[2] = dose: 50.0 mg/kg/injection, schedule: Q01DX009 (ip), vehicle: Klucel (hydroxypropylcellulose) (HPC)
[3] = dose: 100.0 mg/kg/injection, schedule: Q01DX009 (ip), vehicle: Klucel (hydroxypropylcellulose) (HPC)
[4] = dose: 6.25 mg/kg/injection, schedule: Q01DX009 (ip), vehicle: Klucel (hydroxypropylcellulose) (HPC)
[5] = dose: 12.5 mg/kg/injection, schedule: Q01DX009 (ip), vehicle: Klucel (hydroxypropylcellulose) (HPC)
[6] = dose: 25.0 mg/kg/injection, schedule: Q01DX009 (ip), vehicle: saline with Tween-80
[7] = dose: 50.0 mg/kg/injection, schedule: Q01DX009 (ip), vehicle: saline with Tween-80
[8] = dose: 100.0 mg/kg/injection, schedule: Q01DX009 (ip), vehicle: saline with Tween-80
[9] = dose: 200.0 mg/kg/injection, schedule: Q01DX009 (ip), vehicle: saline with Tween-80
[10] = dose: 200.0 mg/kg/injection, schedule: Q01DX009 (ip), vehicle: Klucel (hydroxypropylcellulose) (HPC)
[11] = dose: 400.0 mg/kg/injection, schedule: Q01DX009 (ip), vehicle: Klucel (hydroxypropylcellulose) (HPC)
[12] = dose: 12.5 mg/kg/injection, schedule: Q01DX009 (ip), vehicle: saline with Tween-80
[13] = dose: 5.0 mg/kg/injection, schedule: Q01DX009 (ip), vehicle: saline with Tween-80

Measured: T/C

C=C(OC)C(Nc1cc(OC)c(OC)cc1C(=O)OC1CC(O[C@@H]2C(=O)C(NC(=O)OC)=C3/C(=C\CSSSC)[C@]2(O)C#C/C=C\C#C[C@@H]3OC2OC(C)C(NOC3CC(O)C(SC)C(C)O3)C(O)C2OC2CC(OC)C(NCCC)CO2)OC(C)C1O)OC (some centres undefined)
219 % of control and 101 % of control: dose: 40.0 nanograms/kg/injection, schedule: Q01DX009 (ip), vehicle: saline + alcohol
active: dose: 0.16 micrograms/kg/injection, schedule: Q01DX009 (ip), vehicle: saline + alcohol 191 % of control | dose: 0.32 micrograms/kg/injection, schedule: Q01DX009 (ip), vehicle: saline + alcohol 162 % of control | dose: 0.63 micrograms/kg/injection, schedule: Q01DX009 (ip), vehicle: saline + alcohol 170 % of control | dose: 20.0 nanograms/kg/injection, schedule: Q01DX009 (ip), vehicle: saline + alcohol 155 % of control
inactive: dose: 2.5 nanograms/kg/injection, schedule: Q01DX009 (ip), vehicle: saline + alcohol 119 % of control | dose: 4.0 nanograms/kg/injection, schedule: Q01DX009 (ip), vehicle: saline + alcohol 93 % of control | dose: 5.0 nanograms/kg/injection, schedule: Q01DX009 (ip), vehicle: saline + alcohol 109 % of control | dose: 14.0 nanograms/kg/injection, schedule: Q01DX009 (ip), vehicle: saline + alcohol 102 % of control | dose: 24.0 nanograms/kg/injection, schedule: Q01DX009 (ip), vehicle: saline + alcohol 103 % of control | dose: 66.67 nanograms/kg/injection, schedule: Q01DX009 (ip), vehicle: saline + alcohol 96 % of control | dose: 111.11 nanograms/kg/injection, schedule: Q01DX009 (ip), vehicle: saline + alcohol 97 % of control

CCCC(NC(=O)OCc1ccccc1)C(=O)NC(C)C(=O)O (centres undefined)
inactive: [1] 101 % of control | [2] 104 % of control | [3] 102 % of control

O=NN(CCF)C(=O)N[C@H]1CCCC[C@H]1O
active: dose: 30.0 mg/kg/injection, schedule: Q01DX001 (ip), vehicle: saline 177 % of control | dose: 60.0 mg/kg/injection, schedule: Q01DX001 (ip), vehicle: saline 209 % of control
inactive: dose: 7.5 mg/kg/injection, schedule: Q01DX001 (ip), vehicle: saline 109 % of control

N#C[Se-].c1ccc([Te+](c2ccccc2)c2ccccc2)cc1
inactive: dose: 1.56 mg/kg/injection, schedule: Q01DX009 (ip), vehicle: Klucel (hydroxypropylcellulose) (HPC) 92 % of control | dose: 3.12 mg/kg/injection, schedule: Q01DX009 (ip), vehicle: Klucel (hydroxypropylcellulose) (HPC) 97 % of control | [4] 96 % of control | [5] 96 % of control

Oc1ccc(/C=N/N=C/c2ccc(O)c(O)c2)cc1O
inactive: [6] 100 % of control | [7] 102 % of control | [8] 99 % of control | [9] 97 % of control

O=C1CC2(C(=O)N1CN1CCOCC1)c1ccccc1-c1ccccc12
inactive: [3] 93 % of control | [10] 98 % of control | [11] 93 % of control

CCN1CSC(=S)N(CC)C1
inactive: [6] 94 % of control | [7] 94 % of control | [8] 91 % of control

O=Cc1ccccc1
inactive: [12] 101 % of control | [1] 100 % of control | [6] 99 % of control | [2] 105 % of control | [7] 98 % of control | dose: 50.0 mg/kg/injection, schedule: Q01DX009 (oral), vehicle: Klucel (hydroxypropylcellulose) (HPC) 95 % of control | [8] 98 % of control | dose: 100.0 mg/kg/injection, schedule: Q01DX009 (oral), vehicle: Klucel (hydroxypropylcellulose) (HPC) 88 % of control | [10] 86 % of control | [9] 89 % of control | dose: 200.0 mg/kg/injection, schedule: Q01DX009 (oral), vehicle: Klucel (hydroxypropylcellulose) (HPC) 98 % of control | [11] 92 % of control | dose: 400.0 mg/kg/injection, schedule: Q01DX009 (oral), vehicle: Klucel (hydroxypropylcellulose) (HPC) 105 % of control

COc1cc(C)c(C2NC(=O)c3ccccc3N2)cc1C (centres undefined)
inactive: [2] 111 % of control and 120 % of control | [3] 115 % of control and 105 % of control | [10] 111 % of control | [11] 112 % of control | dose: 800.0 mg/kg/injection, schedule: Q01DX009 (ip), vehicle: Klucel (hydroxypropylcellulose) (HPC) 107 % of control

CCOC(=O)NC(N)=O
inactive: [7] 101 % of control | [8] 117 % of control | [9] 102 % of control | dose: 400.0 mg/kg/injection, schedule: Q01DX009 (ip), vehicle: saline with Tween-80 105 % of control

NC(CO)(CO)CO
inactive: dose: 200.0 mg/kg/injection, schedule: Q01DX009 (ip), vehicle: saline 104 % of control | dose: 200.0 mg/kg/injection, schedule: Q12HX018 (ip), vehicle: saline 102 % of control | dose: 400.0 mg/kg/injection, schedule: Q01DX009 (ip), vehicle: saline 102 % of control | dose: 400.0 mg/kg/injection, schedule: Q12HX018 (ip), vehicle: saline 102 % of control | dose: 800.0 mg/kg/injection, schedule: Q01DX009 (ip), vehicle: saline 98 % of control | dose: 800.0 mg/kg/injection, schedule: Q12HX018 (ip), vehicle: saline 106 % of control | dose: 1600.0 mg/kg/injection, schedule: Q01DX009 (ip), vehicle: saline 98 % of control | dose: 1600.0 mg/kg/injection, schedule: Q12HX018 (ip), vehicle: saline 101 % of control

O=S(CCCl)CCCl
inactive: [4] 96 % of control and 107 % of control | [5] 98 % of control and 101 % of control | [1] 98 % of control and 107 % of control | [2] 89 % of control and 96 % of control

Clc1cc(Cl)nc(N2CC2)n1
inactive: dose: 2.5 mg/kg/injection, schedule: Q01DX009 (ip), vehicle: saline with Tween-80 108 % of control | [13] 102 % of control | dose: 10.0 mg/kg/injection, schedule: Q01DX009 (ip), vehicle: saline with Tween-80 106 % of control

[Cl][Pt+2][Cl].[NH-]c1ccccc1[NH-]
inactive: dose: 0.63 mg/kg/injection, schedule: Q01DX009 (ip), vehicle: saline with Tween-80 99 % of control | dose: 1.25 mg/kg/injection, schedule: Q01DX009 (ip), vehicle: saline with Tween-80 111 % of control
active: [13] 150 % of control

COc1ccc(N=C(C)C2C(=O)c3ccccc3C2=O)cc1
inactive: dose: 50.0 mg/kg/injection, schedule: Q01DX009 (ip), vehicle: DMSO 103 % of control | dose: 100.0 mg/kg/injection, schedule: Q01DX009 (ip), vehicle: DMSO 103 % of control | dose: 200.0 mg/kg/injection, schedule: Q01DX009 (ip), vehicle: DMSO 105 % of control | dose: 400.0 mg/kg/injection, schedule: Q01DX009 (ip), vehicle: DMSO 116 % of control | dose: 800.0 mg/kg/injection, schedule: Q01DX009 (ip), vehicle: DMSO 97 % of control

CN=C(N)c1ccc(N=C(N)c2ccc(C(N)=Nc3ccc(C(N)=NC)cc3)cc2)cc1
inactive: dose: 7.5 mg/kg/injection, schedule: Q01DX009 (ip), vehicle: saline 95 % of control | dose: 15.0 mg/kg/injection, schedule: Q01DX009 (ip), vehicle: saline 89 % of control

O=C1CN(Cc2ccc3c(c2)OCO3)NO1
inactive: dose: 6.25 mg/kg/injection, schedule: Q01DX009 (ip), vehicle: saline with Tween-80 103 % of control and 106 % of control | [12] 109 % of control and 95 % of control | [6] 112 % of control and 107 % of control | [7] 115 % of control and 117 % of control | [8] 115 % of control

CO[C@@H]1[C@H](O)CC[C@]2(CO2)[C@H]1[C@@]1(C)O[C@@H]1CC=C(C)C
inactive: dose: 1.56 mg/kg/injection, schedule: Q01DX009 (ip), vehicle: saline with Tween-80 102 % of control and 105 % of control | dose: 3.12 mg/kg/injection, schedule: Q01DX009 (ip), vehicle: saline with Tween-80 108 % of control and 109 % of control and 122 % of control | dose: 3.13 mg/kg/injection, schedule: Q01DX009 (ip), vehicle: saline 108 % of control | dose: 6.25 mg/kg/injection, schedule: Q01DX009 (ip), vehicle: saline 111 % of control | [8] 104 % of control
